What all share (format): biochemical
Assay [1] has as its target T1, RET^WT (Homo sapiens, UniProt P07949).
T1 construct: GST-RET^WT (658-1114 aa, final concentration of 0.5 nM)
T1 sequence (P07949 658-1114): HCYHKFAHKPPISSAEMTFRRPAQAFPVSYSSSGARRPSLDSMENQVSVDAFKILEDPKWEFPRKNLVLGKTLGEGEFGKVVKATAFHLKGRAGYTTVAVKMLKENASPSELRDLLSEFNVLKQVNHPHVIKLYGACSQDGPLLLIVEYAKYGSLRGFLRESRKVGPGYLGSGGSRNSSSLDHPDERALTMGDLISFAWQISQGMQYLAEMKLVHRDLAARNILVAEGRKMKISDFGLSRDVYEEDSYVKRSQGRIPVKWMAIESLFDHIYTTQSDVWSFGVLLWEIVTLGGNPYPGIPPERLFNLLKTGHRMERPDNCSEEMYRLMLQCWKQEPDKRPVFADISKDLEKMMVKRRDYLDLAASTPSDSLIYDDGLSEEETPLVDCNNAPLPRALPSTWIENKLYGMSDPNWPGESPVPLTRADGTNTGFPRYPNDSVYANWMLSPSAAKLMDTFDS
The assay can be described thus: In vitro enzymatic activity assay on RET^WT (HTRF). Conditions: GST-RET^WT (658-1114 aa) 0.5 nM, ATP 25 μM. The protocol: 1. In Vitro Enzymatic Activity Assay for Compounds on RET^WT
The compounds were diluted 5-fold with 100% DMSO starting from 0.2 mM (7 concentrations in total), and 2 μL of each concentration was added to 48 μL of reaction buffer (50 mM HEPES pH7.5, 0.1 mM Na3VO4, 5 mM MgCl2. 1 mM DTT, 0.001% Tween 20, and 100 μg/ml BSA) for dilution and mixing.
The 384-well plate was placed in an incubator and reacted at 23° C. for 2 h before the reaction was stopped by the addition of 5 μL of TK Antibody (purchased from Cisbio) and 5 μL of Streptavidin-XL665 (purchased from Cisbio). […] The enzymatic activity signal of RET^WT was measured at 7 concentrations for each compound and the data were calculated using GraphPad Prism software to obtain the IC50 value for the compound.
(In general: In TR-FRET formats the signal depends on donor and acceptor labels being close together.)

Assay [2] deals with T2, RET^V804M (Homo sapiens, UniProt P07949, V804M).
T2 construct: GST-RET^V804M (658-1114 aa, final concentration of 0.02 nM)
T2 sequence (P07949 658-1114 V804M): T1 sequence (P07949 658-1114) with V147M
Put plainly: In vitro enzymatic activity assay on RET^V804M (HTRF). Conditions: GST-RET^V804M (658-1114 aa) 0.02 nM, ATP 1.5 μM.

Assay [3] concerns the target VEGFR2 (Homo sapiens, UniProt P35968). The assay can be described thus: In vitro enzymatic activity assay on VEGFR2 (HTRF). The conditions noted are these: GST-VEGFR2 0.1 nM, ATP 2.5 μM. The method, then:
3. n Vitro Enzymatic Activity Assay for Compounds on VEGFR2
The compounds were diluted 5-fold with 100% DMSO starting from 1 mM (7 concentrations in total), and 2 μL of each concentration was added to 48 μL of reaction buffer (50 mM HEPES pH 7.5, 0.1 mM Na3VO4, 5 mM MgCl2, 1 mM MnCl2, 1 mM DTT, 0.001% Tween 20, and 100 μg/ml BSA) for dilution and mixing. 2.5 μL of compounds and 5 μL of GST-VEGFR2 (final concentration of 0.1 nM) were added to a 384-well plate (OptiPlate-384, purchased from PerkinElmer), the mixture was mixed by centrifugation, and 2.5 μL of ATP (final concentration of 2.5 μM) and TK Peptide Substrate mixture (final concentration of 1 μM, purchased from Cisbio) were added to start the reaction, with a total reaction volume of 10 μL. The 384-well plate was placed in an incubator and reacted at 23° C. for 1.5 h before the reaction was stopped by the addition of 5 μL of TK Antibody (purchased from Cisbio) and 5 μL of Streptavidin-XL665 (purchased from Cisbio). After further incubation in the incubator for 1 h. fluorescence values (excitation at 320 nm, detecting emitted light at 665 nm and 620 nm, and a ratio of the two as an enzyme activity signal) were read on Envision (purchased from PerkinElmer). The enzymatic activity signal of VEGFR2 was measured at 7 concentrations for each compound and the data were calculated using GraphPad Prism software to obtain the IC50 value for the compound.

Each structure is given as a SMILES string. Substitutions are numbered along the chain they refer to.

Chain of VEGFR2 (P35968 20-1356): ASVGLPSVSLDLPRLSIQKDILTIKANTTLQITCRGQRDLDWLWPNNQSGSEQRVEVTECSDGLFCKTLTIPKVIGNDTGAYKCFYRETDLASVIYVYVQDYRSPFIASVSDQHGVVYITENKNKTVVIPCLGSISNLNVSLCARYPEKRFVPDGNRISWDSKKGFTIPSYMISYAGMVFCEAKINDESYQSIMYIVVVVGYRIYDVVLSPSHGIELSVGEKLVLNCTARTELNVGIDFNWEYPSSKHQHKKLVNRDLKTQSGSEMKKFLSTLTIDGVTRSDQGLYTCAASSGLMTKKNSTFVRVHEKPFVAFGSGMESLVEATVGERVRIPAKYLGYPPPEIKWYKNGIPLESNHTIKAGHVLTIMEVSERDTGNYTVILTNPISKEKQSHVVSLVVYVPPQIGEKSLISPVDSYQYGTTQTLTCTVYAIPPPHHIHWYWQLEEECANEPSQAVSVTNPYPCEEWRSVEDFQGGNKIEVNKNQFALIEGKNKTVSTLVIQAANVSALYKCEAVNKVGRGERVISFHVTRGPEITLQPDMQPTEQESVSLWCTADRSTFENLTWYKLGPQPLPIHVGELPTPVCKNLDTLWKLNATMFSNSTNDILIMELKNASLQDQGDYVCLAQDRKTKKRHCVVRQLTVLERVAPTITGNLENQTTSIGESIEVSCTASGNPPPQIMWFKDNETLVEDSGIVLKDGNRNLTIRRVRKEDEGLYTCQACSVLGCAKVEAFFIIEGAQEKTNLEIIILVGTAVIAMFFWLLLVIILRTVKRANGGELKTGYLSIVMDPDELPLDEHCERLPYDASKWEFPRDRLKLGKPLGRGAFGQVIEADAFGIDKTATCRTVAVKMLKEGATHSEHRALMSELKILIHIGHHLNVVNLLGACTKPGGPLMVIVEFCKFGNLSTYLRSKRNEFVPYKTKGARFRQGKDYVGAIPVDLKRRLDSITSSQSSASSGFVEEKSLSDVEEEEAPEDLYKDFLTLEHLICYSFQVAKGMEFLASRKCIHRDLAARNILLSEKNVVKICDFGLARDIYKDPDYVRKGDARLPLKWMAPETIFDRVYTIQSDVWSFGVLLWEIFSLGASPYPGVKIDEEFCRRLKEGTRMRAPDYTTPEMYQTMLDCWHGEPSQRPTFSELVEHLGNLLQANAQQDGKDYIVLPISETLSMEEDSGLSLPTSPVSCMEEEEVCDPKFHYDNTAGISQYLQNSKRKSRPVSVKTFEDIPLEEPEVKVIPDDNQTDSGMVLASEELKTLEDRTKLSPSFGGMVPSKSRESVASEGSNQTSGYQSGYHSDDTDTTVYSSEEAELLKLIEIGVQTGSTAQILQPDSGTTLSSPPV

With `COc1ccc(CN2C3CC2CN(c2ccc(-c4cc(N5CC(C#N)C5)cn5ncc(C#N)c45)cn2)C3)cn1` [Example 13, 6-(3-cyanoazetidin-1-yl)-4-(6-(6-((6-methoxypyridin-3-yl)methyl)-3,6-diazabicyclo[3.1.1]heptan-3-yl)pyridin-3-yl)pyrazolo[1,5-a]pyridine-3-carbonitrile], the IC50 in assay [1] worked out at 0.421 nM; in assay [2], 0.332 nM; in assay [3], 3.44 nM.
For `CS(=O)(=O)c1ccc(CN2C3CCC2CN(c2ccc(-c4cc(-c5cnn(C(F)F)c5)cn5ncc(C#N)c45)cn2)C3)cc1` [Example 69, 6-(1-difluoromethyl-1Hpyrazol-4-yl)-4-(6-(8-(4-(methylsulfonyl)benzyl)-3,8-diazabicyclo[3.2.1]octan-3-yl)pyridin-3-yl)pyrazolo[1,5-a]pyridine-3-carbonitrile], in that order: 0.716 nM, 5.47 nM and 63.1 nM.
In the same order, the values of `COC/C=C/C(=O)N1C2CC1CN(c1ccc(-c3cc(-c4cnn(C)c4)cn4ncc(C#N)c34)cn1)C2` [Example 61, (E)-4-(6-(6-(4-methoxybut-2-enoyl)-3,6-diazabicyclo[3.1.1]heptan-3-yl)pyridin-3-yl)-6-(1-methyl-1Hpyrazol-4-yl)pyrazolo[1,5-a]pyridine-3-carbonitrile] are 0.779 nM, 6.37 nM and 18.2 nM.
Turning to `COc1ccc(CN2C3CC2CN(c2ccc(-c4cc(N5CC6(COC6)C5)cn5ncc(C#N)c45)cn2)C3)cn1` [Example 14, 4-(6-(6-((6-methoxypyridin-3-yl)methyl)-3,6-diazabicyclo[3.1.1]heptan-3-yl)pyridin-3-yl)-(2-oxa-azaspiro[3.3]hepta-6-yl)pyrazolo[1,5-a]pyridine-3-carbonitrile], the IC50 in assay [1] came to 0.762 nM; in assay [2] it was 0.629 nM; in assay [3], 1.55 nM.
In the same order, the values of `CS(=O)(=O)c1ccc(CN2C3CC2CN(c2cnc(-c4cc(-c5cnn(C(F)F)c5)cn5ncc(C#N)c45)cn2)C3)cc1` [Example 70, 4-(5-(6-(4-(methylsulfonyl)benzyl)-3,6-diazabicyclo[3.1.1]heptan-3-yl)pyrazin-2-yl)-6-(1-(difluoromethyl)-1Hpyrazol-4-yl) pyrazolo[1,5-a] pyridine-3-carbonitrile] are 0.324 nM, 2.52 nM and 55.7 nM.
With `COc1ccc(CN2C3CC2CN(c2ccc(-c4cc(N5CC6(CCOCC6)C5)cn5ncc(C#N)c45)cn2)C3)cn1` [Example 30, 4-(6-(6-((6-methoxypyridin-3-yl)methyl)-3,6-diazabicyclo[3.1.1]heptan-3-yl)pyridin-3-yl)-6-(7-oxa-2-azaspiro[3.5]nonan-2-yl) pyrazolo[1,5-a]pyridine-3-carbonitrile], the 50% inhibitory concentration (IC50) was determined as 0.68 nM in assay [1] and 1.11 nM in assay [2].
Consider `CS(=O)(=O)c1ccc(CN2C3CC2CN(c2ccc(-c4cc(N5CC(C#N)C5)cn5ncc(C#N)c45)cn2)C3)cc1` [Example 35, 6-(3-cyanoazetidin-1-yl)-4-(6-(6-(4-(methylsulfonyl)benzyl)-3,6-diazabicyclo[3.1.1]heptan-3-yl)pyridin-3-yl)pyrazolo[1,5-a]pyridine-3-carbonitrile], for which the values for the IC50 in assay [1], in assay [2] and in assay [3] were 0.172 nM, 1.47 nM and 9.6 nM, respectively.
For `CSc1ccc(CN2C3CCC2CN(c2ccc(-c4cc(-c5cnn(C(F)F)c5)cn5ncc(C#N)c45)cn2)C3)cn1` [Example 73, 6-(1-(difluoromethyl)-1Hpyrazol-4-yl)-4-(6-(8-((6-(methylthio)pyridin-3-yl)methyl)-3,8-diazabicyclo[3.2.1]octan-3-yl)pyridin-3-yl)pyrazolo[1,5-a]pyridine-3-carbonitrile], in that order: 0.753 nM, 5.89 nM and 65.4 nM.
In the same order, the values of `CS(=O)(=O)c1ccc(CN2C3CC2CN(c2ccc(-c4cc(N5CC(F)(F)C5)cn5ncc(C#N)c45)cn2)C3)cc1` [Example 36, 6-(3,3-difluoroazetidin-1-yl)-4-(6-(6-(4-(methylsulfonyl)benzyl)-3,6-diazabicyclo [3.1.1]heptan-3-yl)pyridin-3-yl)pyrazolo[1,5-a]pyridine-3-carbonitrile] are 0.179 nM, 2.58 nM and 16.9 nM.
Turning to `CC(C)(O)COc1cc(-c2ccc(N3CC4CC(C3)N4Cc3ccc(S(C)(=O)=O)cc3)nc2)c2c(C#N)cnn2c1` [Example 38, 6-(2-hydroxy-2-methylpropoxy)-4-(6-(6-(4-(methylsulfonyl)benzyl)-3,6-diazabicyclo[3.1.1]heptan-3-yl)pyridin-3-yl)pyrazolo[1,5-a]pyridine-3-carbonitrile], the half-inhibitory concentration (IC50) in assay [1] came to 0.419 nM; in assay [3], 40.3 nM.
Regarding `COc1ccc(CN2CCN(c3ccc(-c4cc(N5CC(OC)C5)cn5ncc(C#N)c45)cn3)CC2)cn1` [Example 33, 6-(3-methoxyazetidin-1-yl)-4-(6-(4-((6-methoxypyridin-3-yl)methyl)piperazin-1-yl)pyridin-3-yl)pyrazolo[1,5-a]pyridine-3-carbonitrile], the half-inhibitory concentration (IC50) in assay [1] came out at 0.944 nM; in assay [2], 2.84 nM; in assay [3] it was 7.5 nM.
For the compound `CS(=O)(=O)c1ccc(CN2CCN(c3ccc(-c4cc(-c5cnn(C(F)F)c5)cn5ncc(C#N)c45)cn3)CC2)cc1` [Example 49, 6-(1-difluoromethyl-1Hpyrazol-4-yl)-4(6-(4-(4-(methylsulfonyl)benzyl)piperazin-1-yl)pyridin-3-yl)pyrazolo[1,5-a]pyridine-3-carbonitrile], the results for the IC50 in assay [1] and in assay [3] were 0.94 nM and 18.2 nM, respectively.
Consider `COc1ccc(CN2C3CC2CN(c2ccc(-c4cc(N5CC(O)(C(F)(F)F)C5)cn5ncc(C#N)c45)cn2)C3)cn1` [Example 28, 6-(3-hydroxy-3-(trifluoromethyl)azetidin-1-yl)-4-(6-(6-((6-methoxypyridin-3-yl)methyl)-3,6-diazabicyclo[3.1.1]heptan-3-yl)pyridin-3-yl)pyrazolo[1,5-a]pyridine-3-carbonitrile], for which the values for the IC50 in assay [1] and in assay [2] were 0.757 nM and 2.5 nM, respectively.
For the compound `CN(C)C(=O)Cn1cc(-c2cc(-c3ccc(N4CCN(Cc5ccc(S(C)(=O)=O)cc5)CC4)nc3)c3c(C#N)cnn3c2)cn1` [Example 54], the IC50 came to 1.07 nM in assay [1] and 10.1 nM in assay [3].
In the same order, the values of `CSc1ccc(CN2C3CC2CN(c2ccc(-c4cc(-c5cnn(C(F)F)c5)cn5ncc(C#N)c45)cn2)C3)nc1` [Example 66, 6-(1-(difluoromethyl)-1Hpyrazol-4-yl)-4-(6-(6-((5-(methylthio)pyridin-2-yl)methyl)-3,6-diazabicyclo[3.1.1]heptan-3-yl)pyridin-3-yl)pyrazolo[1,5-a]pyridine-3-carbonitrile] are 0.268 nM and 2.94 nM.

For orientation: IC50 means the concentration needed to halve the response being measured. The low end stands for higher potency, the high end for lower potency.

Values taken from patent US12583855B2, “RET selective inhibitor, preparation method therefor and use thereof” (SHOUYAO HOLDINGS (BEIJING) CO., LTD., priority 2019, dated 2026).
